Here are results for one substance from patent publication US20220226357A1, “METHODS FOR TREATING NEURODEGENERATIVE DISORDERS” (THOMAS JEFFERSON UNIVERSITY, priority 2019, published 2022).

“Also recorded” adds a separate entry of the source. Marks after values point to notes of the source that are not given here.

Common to all, as to format: in vivo
The subject of assay [1] is AAV-A53T α-synuclein rat model. In words: Cylinder test of spontaneous forelimb use. Here is the method: (§1) Institutional Animal Care and Use Committee and conducted in accordance with the National Institutes of Health Guide for the Care and Use of Laboratory Animals. Adult male Sprague-Dawley rats (Envigo), 250 to 300 g at the time of surgery, were housed three per cage with ad libitum access to food and water during a 12-hour light/dark cycle. All surgeries were performed under general anesthesia using a mixture of ketamine (100 mg/kg, i.p.) and xylazine (10 mg/kg, i.p.). Once animals were anesthetized, the head was shaved and surgically prepped with Betadine solution and alcohol before being placed in a Kopf stereotaxic frame with the incisor bar set at approximately 3.5 mm below horizontal zero to achieve a flat skull position. The skin on the top of the skull was cut along the midline and retracted. […] Following a 5 minute wait period after completion of the injection, the needle was slowly withdrawn, the skin wound was closed, and post-surgery analgesia (meloxicam 1 mg/kg) was administered. Some rats were randomly assigned to receive daily GM1 ganglioside (porcine brain derived GM1, 30 mg/kg, i.p., Qilu Pharmaceutical Co., Ltd.) or similar volume saline injections beginning 24 hours after AAV-A53T-synuclein surgery and lasting for 6 weeks (early start group). Other animals were randomly assigned to receive daily GM1 ganglioside (porcine brain derived GM1, 30 mg/kg, i.p., Qilu Pharmaceutical Co.) or similar volume saline injections beginning 3 weeks after AAV-A53T-synuclein surgery and lasting for 5 weeks (delayed start group). […] At the conclusion of the study, animals were euthanized, fresh brains were rapidly removed, and two to three striatal samples from both sides were dissected and immediately frozen for later analyses. The remainder of the brain (including the striatum beginning at the level of the decussation of the anterior commissure) was submersion fixed in 4% paraformaldehyde.
Forelimb use during explorative activity was analyzed using the cylinder test. The test apparatus consisted of a clear Plexiglass cylinder of approximately 33 cm diameter and 50 cm height placed in a dimly lit room in front of a mirror in order to visualize limb use from all angles. Each session was videotaped for later analysis by an observer blind to the animal's experimental group. The paw contralateral to the side of the AAV-A53T-α-synuclein injection was marked prior to the start of each test session to definitively determine laterality on videotapes. The test was performed in the late afternoon prior to the onset of the dark cycle. At each test session, the animal was gently placed in the cylinder and movements were videotaped for 10 minutes. Forelimb use was assessed by scoring weight-bearing contacts on the cylinder wall with the ipsilateral, contralateral (relative to the AAV-A53T-α-synuclein-injected side), and both paws. Twenty observations of the paw placements on the cylinder wall were scored. Limb placement on the wall was scored only if it occurred after the animal returned to a resting position and reared again to touch the cylinder wall. Percent ipsilateral (ipsi) and contralateral (contra) paw touches were calculated as [(ipsi+1/2 both)/total #observations]*100 and [(contra+1/2 both)/total #observations]*100, respectively. The cylinder test was performed prior to surgery (baseline) and at 3 and 6 weeks after surgery for the immediate start GM1 groups and at 3 and 8 weeks after surgery for the delayed start GM1 groups.

The subject of assay [2] is AAV-A53T α-synuclein rat model. In words: Stereological counting of TH+ and Nissl (cresyl violet) stained neurons in the SNc. On the procedure:
as §1
Fixed tissue blocks were immersed in 30% sucrose for cryoprotection and sectioned frozen on a sliding microtome (30 μm section thickness for striatal sections; 40 μm section thickness for SN sections). Sections through the rostro-caudal extent of the SN were collected and every sixth section from the SN was processed for tyrosine hydroxylase (TH) immunohistochemistry to be used for stereological cell counting. Three striatal sections from approximately the level of the decussation of the anterior commissure in each case were processed for α-synuclein immunohistochemistry. For immunohistochemistry, sections were washed and permeabilized with PBS containing 0.2% Triton X-100. Endogenous peroxidase activity was quenched using 3% hydrogen peroxide in PBS containing 0.2% Triton X-100. Sections were then blocked in PBS/triton X-100 containing 10% normal goat serum and 2% BSA, followed by primary antibody incubation (TH (rabbit anti-TH, 1:2,000, Pel-Freez); α-synuclein (mouse anti-α-synuclein clone 211; 1:2000, Millipore) overnight at 4° C. The following day, sections were washed in PBS and incubated in biotinylated secondary antibody (goat-anti-rabbit 1:4000 for TH; goat-anti-mouse 1:2000 for α-synuclein 1:2000, VECTOR Laboratories), followed by additional washes and incubation in avidin biotin complex (VECTASTAIN Elite ABC system, VECTOR Laboratories). The reaction product was visualized with 3,3′-diaminobenzidine (DAB) (Immpact DAB, VECTOR Laboratories). Sections were then mounted, dehydrated, cleared and coverslipped. Sections stained for visualization of TH and to be used for stereological cell counting were counterstained with cresyl violet prior to coverslipping. Stereological estimates of the numbers of TH and cresyl violet-stained neurons in the SNc on both sides of the brain were obtained using StereoInvestigator software (MBF Bioscience) and an Olympus BX-60 microscope equipped with a Ludl motorized stage. Slides were coded and analyzed blindly. […]

For assay [3], the system named is AAV-A53T α-synuclein rat model. In words: Insoluble pSer129 α-Syn immunofluorescence in SN after proteinase K. As to conditions: GM1 30 mg/kg/day i.p. for 2 wks, starting 24 hrs after AAV-A53T. An excerpt:
However, GM1 administration may affect α-Syn phosphorylation and aggregation in vivo. Some studies have reported that in vitro, GM1 and α-Syn interact, resulting in an absence of fibril formation and an increase in helical folding propensity, resulting in GM1-mediated protection against aggregation. […] It was proposed herein that a mechanism that underlies the ability of GM1 to reduce α-Syn-related neurotoxicity is that GM1 administration reduces α-Syn phosphorylation and thus aggregation, and toxicity, in vivo. […] Beginning 24 hours after AAV administration, some animals received daily i.p. injections of saline and others received daily i.p. injections of GM1 (30 mg/kg). Animals were euthanized 2 weeks following initiation of saline or GM1 administration. Brains were subsequently sectioned and SN sections were treated with proteinase K and then processed for pSer129 α-Syn immunofluorescence.

Assay [4] deals with AAV-A53T α-synuclein rat model. The assay is described as follows: Beclin-1 protein expression in the SN. The settings on record: 2 wks after AAV-A53T vector injection; N=8/grp. From the text: The pathological phenotype of various storage disorders comprises increased α-Syn accumulation and aggregation and this increased α-Syn accumulation and aggregation has been linked to lysosomal dyfunction. Also, DA neuron degeneration induced by excess α-Syn in AAV-A53T rats is linked to a progressive decline in autophagic activity and in markers of lysosome function.

Where [5] appears, read: AAV-A53T/Delayed GM1, injected side.
Where [6] appears, read: AAV-A53T/Delayed GM1, non-injected side.
Where [7] appears, read: AAV-A53T/Early GM1, injected side.
[8] abbreviates: AAV-A53T/Early GM1, non-injected side.

Consider GM1 ganglioside, for which the “percent ipsilateral forelimb use” value in assay [1] (delayed start GM1 30 mg/kg/day i.p. from week 3 for 5 weeks, week 8) came out at 61.5±2.7%; in assay [1] (delayed start GM1 group, week 3, just prior to receiving GM1), 74.9±2.8%. The “percent ipsilateral limb use” value in assay [1] (delayed start GM1 group, baseline (prior to surgery and GM1)) amounted to 50.0±2.0%; in assay [1] (early start GM1 30 mg/kg/day i.p. from 24 h after AAV-A53T, 3 weeks, mean±SEM), 67.1±3.7%; in assay [1] (early start GM1 30 mg/kg/day i.p. from 24 h after AAV-A53T, 6 weeks, mean±SEM) it was 56.0±2.5%; in assay [1] (early start GM1 group, baseline (prior to surgery and GM1), mean±SEM), 50.1±1.8%. Moreover, the “Nissl+ Cells” value in assay [2] (setting [5]) was 3335 ± 148^d; in assay [2] (setting [6]), 6113 ± 132; in assay [2] (setting [7]), 3557 ± 172^b; in assay [2] (setting [8]) it was 6074 ± 174. The “TH+ Cells” value in assay [2] (setting [5]) is 2814 ± 134^c; in assay [2] (setting [6]), 5685 ± 143; in assay [2] (setting [7]), 3144 ± 159^a; in assay [2] (setting [8]), 5601 ± 135. In assay [2] (delayed start GM1, 8 weeks), the “loss of TH+ neurons compared to the contralateral side” value was determined as 50.6±2.1%. Further, the “loss of cresyl violet-stained neurons compared to the contralateral side” value in assay [2] (delayed start GM1, 8 weeks) is 45.5±2.1%; in assay [2] (early start GM1, 6 weeks), 41.9±2.5%. The “loss of TH+ neurons compared to the non-injected side” value in assay [2] (early start GM1, 6 weeks) is listed as 43.7±2.7%. The “insoluble pSer129 α-Syn-positive cells and pSer129 α-Syn per cell in the SN, GM1 vs saline” value in assay [3] was “significantly fewer pSer129 α-Syn-positive cells and less pSer129 α-Syn per cell; also recorded: fewer SN neurons expressing insoluble pSer129 and decreased pSer129 expression per neuron”. The “SN Beclin-1 protein expression, GM1 vs saline” value in assay [4] is on record as “reversed increased SN Beclin-1 levels; also recorded: significantly increased in saline-treated vs. GM1-treated animals”.
